# What was measured:
# Experiment in all cases: radiometric filter-binding kinase assay
# MAP2K2 (human) = MAP2K2 (human) (UniProt P36507)
# CHEK1 (human) = CHEK1 (human) (UniProt O14757)
# MAP3K9 (human) = MAP3K9 (human) (UniProt P80192)
# SRC (human) = SRC (human) (UniProt P12931)
# PIM2 (human) = PIM2 (human) (UniProt Q9P1W9)
# MKNK1 (human) = MKNK1 (human) (UniProt Q9BUB5)
# EPHB1 (human) = EPHB1 (human) (UniProt P54762)
# IRAK1 (human) = IRAK1 (human) (UniProt P51617)
# EPHB2 (human) = EPHB2 (human) (UniProt P29323)
# INSRR (human) = INSRR (human) (UniProt P14616)
# [1] = tested on: SGK1 (human), O00141 [S422D]
# CaMK1 (human) = CaMK1 (human) (UniProt Q14012)
# TBK1 (human) = TBK1 (human) (UniProt Q9UHD2)
# PLK1 (human) = PLK1 (human) (UniProt P53350)
# STK11 (human) = STK11 (human) (UniProt Q15831)
# PAK7 (human) = PAK7 (human) (UniProt Q9P286); details: compound 1.0 µM
# MARK2 (human) = MARK2 (human) (UniProt Q7KZI7)
# BRSK1 (human) = BRSK1 (human) (UniProt Q8TDC3)
# [2] = tested on: PAK2 (human), Q13177 [T402E]
# PRKAA1 or PRKAA2 (rat) = details: compound 1.0 µM; accession and sequence are those of the human protein
# EEF2K (human) = EEF2K (human) (UniProt O00418)
# MARK3 (human) = MARK3 (human) (UniProt P27448)
# TTBK2 (human) = TTBK2 (human) (UniProt Q6IQ55)
# PRKCZ (human) = PRKCZ (human) (UniProt Q05513)
# NEK6 (human) = NEK6 (human) (UniProt Q9HC98)
# MAP3K11 (human) = MAP3K11 (human) (UniProt Q16584)
# PDPK1 (human) = PDPK1 (human) (UniProt O15530); details: compound 1.0 µM
# HIPK3 (human) = HIPK3 (human) (UniProt Q9H422); details: compound 1.0 µM
# CSNK1G2 (human) = CSNK1G2 (human) (UniProt P78368)
# EPHA2 (human) = EPHA2 (human) (UniProt P29317)
# HIPK1 (human) = HIPK1 (human) (UniProt Q86Z02)
# MAP2K6 (human) = MAP2K6 (human) (UniProt P52564)
# MAP4K3 (human) = MAP4K3 (human) (UniProt Q8IVH8); details: compound 1.0 µM
# CSNK1G2 (human), sequence (P78368 whole entry, looked up): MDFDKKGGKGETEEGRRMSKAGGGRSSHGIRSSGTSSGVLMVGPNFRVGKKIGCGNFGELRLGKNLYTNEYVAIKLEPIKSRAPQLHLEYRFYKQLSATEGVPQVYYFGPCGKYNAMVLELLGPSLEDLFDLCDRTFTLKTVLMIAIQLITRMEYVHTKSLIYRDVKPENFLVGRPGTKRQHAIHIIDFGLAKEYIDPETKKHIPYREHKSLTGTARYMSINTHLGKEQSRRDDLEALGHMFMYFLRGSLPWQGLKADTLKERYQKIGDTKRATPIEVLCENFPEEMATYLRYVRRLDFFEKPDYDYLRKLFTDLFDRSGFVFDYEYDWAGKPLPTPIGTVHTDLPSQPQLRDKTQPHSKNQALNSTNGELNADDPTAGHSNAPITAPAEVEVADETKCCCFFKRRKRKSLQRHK
# INSRR (human), sequence (P14616 whole entry, looked up): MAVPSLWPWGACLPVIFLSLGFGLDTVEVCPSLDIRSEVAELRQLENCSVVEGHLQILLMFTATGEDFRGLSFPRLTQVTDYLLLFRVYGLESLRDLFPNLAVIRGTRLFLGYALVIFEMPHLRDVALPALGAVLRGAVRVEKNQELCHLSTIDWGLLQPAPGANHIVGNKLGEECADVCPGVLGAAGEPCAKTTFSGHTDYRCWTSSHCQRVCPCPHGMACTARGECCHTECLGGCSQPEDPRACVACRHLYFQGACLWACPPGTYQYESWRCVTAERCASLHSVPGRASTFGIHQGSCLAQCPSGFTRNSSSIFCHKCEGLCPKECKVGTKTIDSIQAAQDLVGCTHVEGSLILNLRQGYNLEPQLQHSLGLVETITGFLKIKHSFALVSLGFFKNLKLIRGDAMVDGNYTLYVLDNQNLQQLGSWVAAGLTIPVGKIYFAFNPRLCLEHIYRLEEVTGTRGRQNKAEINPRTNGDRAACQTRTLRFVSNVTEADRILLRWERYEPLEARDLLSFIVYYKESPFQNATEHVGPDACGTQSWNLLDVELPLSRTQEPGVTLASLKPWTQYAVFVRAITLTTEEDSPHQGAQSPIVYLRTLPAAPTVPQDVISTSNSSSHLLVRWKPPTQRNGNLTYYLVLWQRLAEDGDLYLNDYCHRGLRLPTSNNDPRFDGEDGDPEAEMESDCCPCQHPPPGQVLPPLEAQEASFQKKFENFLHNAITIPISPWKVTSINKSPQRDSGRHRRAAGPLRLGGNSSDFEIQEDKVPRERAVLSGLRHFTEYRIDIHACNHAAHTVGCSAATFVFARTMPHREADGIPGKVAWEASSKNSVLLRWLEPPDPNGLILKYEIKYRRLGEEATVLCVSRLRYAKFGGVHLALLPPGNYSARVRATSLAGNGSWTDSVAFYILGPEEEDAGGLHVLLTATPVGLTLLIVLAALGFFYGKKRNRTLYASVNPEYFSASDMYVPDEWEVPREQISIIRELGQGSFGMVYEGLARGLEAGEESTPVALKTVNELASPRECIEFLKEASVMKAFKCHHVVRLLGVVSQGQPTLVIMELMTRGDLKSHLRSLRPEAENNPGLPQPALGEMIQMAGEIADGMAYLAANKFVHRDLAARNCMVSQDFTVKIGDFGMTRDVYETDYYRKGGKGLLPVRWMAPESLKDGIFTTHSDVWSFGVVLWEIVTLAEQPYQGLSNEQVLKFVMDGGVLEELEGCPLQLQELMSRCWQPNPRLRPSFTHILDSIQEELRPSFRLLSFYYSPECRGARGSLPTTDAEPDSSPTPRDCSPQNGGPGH
# SGK1 (human), O00141 [S422D], sequence (O00141 whole entry S422D, looked up): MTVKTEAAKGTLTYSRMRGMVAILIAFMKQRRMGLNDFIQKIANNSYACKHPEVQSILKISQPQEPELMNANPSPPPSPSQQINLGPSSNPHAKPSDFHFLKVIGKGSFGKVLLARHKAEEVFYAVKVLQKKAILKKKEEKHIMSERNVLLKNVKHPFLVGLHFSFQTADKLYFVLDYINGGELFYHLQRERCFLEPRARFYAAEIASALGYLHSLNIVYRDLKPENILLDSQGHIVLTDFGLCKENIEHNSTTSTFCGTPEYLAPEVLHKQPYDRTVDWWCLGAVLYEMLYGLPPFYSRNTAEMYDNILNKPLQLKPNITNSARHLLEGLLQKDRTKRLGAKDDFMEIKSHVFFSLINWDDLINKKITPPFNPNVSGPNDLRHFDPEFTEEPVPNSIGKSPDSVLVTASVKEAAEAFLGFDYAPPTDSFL
# MKNK1 (human), sequence (Q9BUB5 whole entry, looked up): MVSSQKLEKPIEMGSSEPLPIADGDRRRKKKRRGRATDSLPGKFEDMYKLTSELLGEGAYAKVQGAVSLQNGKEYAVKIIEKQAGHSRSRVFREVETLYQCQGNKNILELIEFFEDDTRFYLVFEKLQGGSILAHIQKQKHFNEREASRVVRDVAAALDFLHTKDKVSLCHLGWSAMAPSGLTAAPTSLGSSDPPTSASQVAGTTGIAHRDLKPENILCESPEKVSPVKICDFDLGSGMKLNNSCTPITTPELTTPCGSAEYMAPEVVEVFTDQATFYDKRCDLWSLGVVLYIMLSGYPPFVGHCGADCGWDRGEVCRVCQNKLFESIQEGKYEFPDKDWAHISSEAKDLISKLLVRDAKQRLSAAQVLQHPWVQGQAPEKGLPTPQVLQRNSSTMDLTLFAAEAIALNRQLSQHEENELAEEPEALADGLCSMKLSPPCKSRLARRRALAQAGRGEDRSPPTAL
# MARK2 (human), sequence (Q7KZI7 whole entry, looked up): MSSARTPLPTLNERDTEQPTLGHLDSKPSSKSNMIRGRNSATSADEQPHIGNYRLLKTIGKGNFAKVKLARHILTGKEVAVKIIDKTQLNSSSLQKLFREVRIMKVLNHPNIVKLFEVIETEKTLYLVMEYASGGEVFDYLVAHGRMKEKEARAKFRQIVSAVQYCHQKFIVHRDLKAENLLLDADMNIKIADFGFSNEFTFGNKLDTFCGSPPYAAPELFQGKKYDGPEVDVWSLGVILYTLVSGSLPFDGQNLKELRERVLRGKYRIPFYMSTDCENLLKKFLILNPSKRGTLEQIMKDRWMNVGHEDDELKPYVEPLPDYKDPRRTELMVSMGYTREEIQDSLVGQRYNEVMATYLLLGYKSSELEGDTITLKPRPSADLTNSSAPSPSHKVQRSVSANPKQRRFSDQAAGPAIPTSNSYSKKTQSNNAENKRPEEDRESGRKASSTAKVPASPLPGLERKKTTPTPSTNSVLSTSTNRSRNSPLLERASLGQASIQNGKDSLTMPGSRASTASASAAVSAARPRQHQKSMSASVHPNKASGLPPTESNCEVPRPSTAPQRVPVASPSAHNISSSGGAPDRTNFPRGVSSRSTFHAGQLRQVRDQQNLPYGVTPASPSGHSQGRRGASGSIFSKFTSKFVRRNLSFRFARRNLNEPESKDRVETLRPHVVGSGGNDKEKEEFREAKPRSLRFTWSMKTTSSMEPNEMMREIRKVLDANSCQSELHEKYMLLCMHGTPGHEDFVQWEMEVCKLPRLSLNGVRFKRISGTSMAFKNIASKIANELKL
# EEF2K (human), sequence (O00418 whole entry, looked up): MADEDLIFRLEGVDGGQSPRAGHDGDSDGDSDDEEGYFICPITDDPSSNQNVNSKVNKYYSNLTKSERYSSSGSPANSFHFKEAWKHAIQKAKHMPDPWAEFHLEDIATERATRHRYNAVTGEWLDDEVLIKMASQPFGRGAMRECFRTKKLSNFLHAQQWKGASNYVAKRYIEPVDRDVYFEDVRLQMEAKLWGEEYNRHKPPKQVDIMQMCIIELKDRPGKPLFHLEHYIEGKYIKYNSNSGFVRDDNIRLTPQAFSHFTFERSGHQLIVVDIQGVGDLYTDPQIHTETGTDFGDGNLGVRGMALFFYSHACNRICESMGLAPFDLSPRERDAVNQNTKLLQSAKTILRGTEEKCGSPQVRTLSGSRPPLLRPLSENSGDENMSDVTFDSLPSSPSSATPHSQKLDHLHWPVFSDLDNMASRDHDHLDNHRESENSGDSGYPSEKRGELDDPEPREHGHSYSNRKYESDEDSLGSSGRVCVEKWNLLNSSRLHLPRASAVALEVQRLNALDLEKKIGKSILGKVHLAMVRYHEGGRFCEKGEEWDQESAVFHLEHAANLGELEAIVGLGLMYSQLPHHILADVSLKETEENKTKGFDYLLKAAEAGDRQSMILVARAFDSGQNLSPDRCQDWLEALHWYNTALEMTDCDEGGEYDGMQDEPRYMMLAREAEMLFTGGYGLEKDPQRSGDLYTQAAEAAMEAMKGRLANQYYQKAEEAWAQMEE
# IRAK1 (human), sequence (P51617 whole entry, looked up): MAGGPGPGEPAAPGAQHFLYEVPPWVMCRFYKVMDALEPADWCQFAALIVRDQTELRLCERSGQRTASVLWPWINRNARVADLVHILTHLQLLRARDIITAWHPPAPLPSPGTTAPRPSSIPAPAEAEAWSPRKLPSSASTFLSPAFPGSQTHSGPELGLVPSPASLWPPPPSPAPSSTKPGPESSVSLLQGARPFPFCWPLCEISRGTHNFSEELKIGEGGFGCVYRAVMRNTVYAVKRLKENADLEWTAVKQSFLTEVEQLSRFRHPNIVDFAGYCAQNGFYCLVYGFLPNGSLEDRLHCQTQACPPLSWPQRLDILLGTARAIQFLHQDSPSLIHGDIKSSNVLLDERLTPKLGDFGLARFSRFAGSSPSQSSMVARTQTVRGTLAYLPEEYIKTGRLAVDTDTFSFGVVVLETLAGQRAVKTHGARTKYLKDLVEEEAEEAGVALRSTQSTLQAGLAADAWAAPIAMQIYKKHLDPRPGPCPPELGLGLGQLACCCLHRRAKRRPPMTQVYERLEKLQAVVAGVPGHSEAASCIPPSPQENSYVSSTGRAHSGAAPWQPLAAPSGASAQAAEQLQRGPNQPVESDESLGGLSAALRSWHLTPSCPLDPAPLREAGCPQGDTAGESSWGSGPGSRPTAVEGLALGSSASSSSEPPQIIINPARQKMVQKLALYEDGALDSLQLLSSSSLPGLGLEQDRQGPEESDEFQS
smiles,measurement,setting,value
CNc1nc(Nc2ccc(C(=O)N3CCOCC3)cc2OC)ncc1Cl,residual activity,MAP2K2 (human); compound 1.0 µM,91%
same,residual activity,MAP2K2 (human); compound 10.0 µM,86%
same,residual activity,CHEK1 (human); compound 1.0 µM,65%
same,residual activity,CHEK1 (human); compound 10.0 µM,45%
same,residual activity,MAP3K9 (human); compound 1.0 µM,38%
same,residual activity,MAP3K9 (human); compound 10.0 µM,18%
same,residual activity,SRC (human); compound 1.0 µM,84%
same,residual activity,SRC (human); compound 10.0 µM,79%
same,residual activity,PIM2 (human); compound 1.0 µM,94%
same,residual activity,PIM2 (human); compound 10.0 µM,97%
same,residual activity,MKNK1 (human); compound 1.0 µM,71%
same,residual activity,MKNK1 (human); compound 10.0 µM,44%
same,residual activity,EPHB1 (human); compound 1.0 µM,115%
same,residual activity,EPHB1 (human); compound 10.0 µM,86%
same,residual activity,IRAK1 (human); compound 1.0 µM,84%
same,residual activity,IRAK1 (human); compound 10.0 µM,83%
same,residual activity,EPHB2 (human); compound 1.0 µM,105%
same,residual activity,EPHB2 (human); compound 10.0 µM,103%
same,residual activity,INSRR (human); compound 1.0 µM,126%
same,residual activity,INSRR (human); compound 10.0 µM,97%
same,residual activity,[1]; compound 1.0 µM,94%
same,residual activity,[1]; compound 10.0 µM,91%
same,residual activity,CaMK1 (human); compound 1.0 µM,85%
same,residual activity,CaMK1 (human); compound 10.0 µM,66%
same,residual activity,TBK1 (human); compound 1.0 µM,86%
same,residual activity,TBK1 (human); compound 10.0 µM,42%
same,residual activity,PLK1 (human); compound 1.0 µM,97%
same,residual activity,PLK1 (human); compound 10.0 µM,105%
same,residual activity,STK11 (human); compound 1.0 µM,92%
same,residual activity,STK11 (human); compound 10.0 µM,90%
same,residual activity,PAK7 (human),88%
same,residual activity,MARK2 (human); compound 1.0 µM,85%
same,residual activity,MARK2 (human); compound 10.0 µM,90%
same,residual activity,BRSK1 (human); compound 1.0 µM,59%
same,residual activity,BRSK1 (human); compound 10.0 µM,78%
same,residual activity,[2]; compound 1.0 µM,97%
same,residual activity,[2]; compound 10.0 µM,105%
same,residual activity,PRKAA1 or PRKAA2 (rat),89%
same,residual activity,EEF2K (human); compound 1.0 µM,83%
same,residual activity,EEF2K (human); compound 10.0 µM,86%
same,residual activity,MARK3 (human); compound 1.0 µM,91%
same,residual activity,MARK3 (human); compound 10.0 µM,78%
same,residual activity,TTBK2 (human); compound 1.0 µM,115%
same,residual activity,TTBK2 (human); compound 10.0 µM,97%
same,residual activity,PRKCZ (human); compound 1.0 µM,99%
same,residual activity,PRKCZ (human); compound 10.0 µM,101%
same,residual activity,NEK6 (human); compound 1.0 µM,73%
same,residual activity,NEK6 (human); compound 10.0 µM,69%
same,residual activity,MAP3K11 (human); compound 1.0 µM,75%
same,residual activity,MAP3K11 (human); compound 10.0 µM,43%
same,residual activity,PDPK1 (human),102%
same,residual activity,HIPK3 (human),85%
same,residual activity,CSNK1G2 (human); compound 1.0 µM,96%
same,residual activity,CSNK1G2 (human); compound 10.0 µM,93%
same,residual activity,EPHA2 (human); compound 1.0 µM,93%
same,residual activity,EPHA2 (human); compound 10.0 µM,97%
same,residual activity,HIPK1 (human); compound 1.0 µM,77%
same,residual activity,HIPK1 (human); compound 10.0 µM,94%
same,residual activity,MAP2K6 (human); compound 1.0 µM,74%
same,residual activity,MAP2K6 (human); compound 10.0 µM,65%
same,residual activity,MAP4K3 (human),94%
